The assay addresses T1, TR α1 (Rattus norvegicus, UniProt P63059).
T1 construct: made in house; host or cells: E. coli
The assay is described as follows: Receptor Binding Assays of TR Ligands ([125I]T3 displacement), TR α1.

T1 sequence (P63059 other isoform, or with tags, fused parts or gaps): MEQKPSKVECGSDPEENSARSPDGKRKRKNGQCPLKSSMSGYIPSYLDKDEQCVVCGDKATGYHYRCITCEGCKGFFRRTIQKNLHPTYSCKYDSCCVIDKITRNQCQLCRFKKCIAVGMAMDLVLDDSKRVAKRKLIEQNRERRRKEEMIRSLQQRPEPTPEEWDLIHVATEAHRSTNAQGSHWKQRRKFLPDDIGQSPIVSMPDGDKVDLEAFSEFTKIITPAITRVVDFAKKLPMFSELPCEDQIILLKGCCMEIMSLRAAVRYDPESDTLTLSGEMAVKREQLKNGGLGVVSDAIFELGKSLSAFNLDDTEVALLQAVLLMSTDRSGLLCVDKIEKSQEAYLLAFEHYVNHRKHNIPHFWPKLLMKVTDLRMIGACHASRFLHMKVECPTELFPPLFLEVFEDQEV

`Cc1cc(OCC(=O)O)cc(C)c1Cc1ccc(O)c(C(C)C)c1` [GC1, [3,5-dimethyl-4-(4'-hydroxy-3'-isopropylbenzyl)-phenoxy] acetic acid]: the IC50 (commonly the concentration that inhibits the measured activity by half) was found to be 20 nM.

The values above are taken from US5883294A, “Selective thyroid hormone analogs” (The Regeants of the University of California, priority 1997, dated 1999).
